Patent publication US9233989B2, “Sila analogs of oxazolidinone derivatives and synthesis thereof” (Council of Scientific & Industrial Research, priority 2011, dated 2016)
In brackets after ≈: the same amount, converted by molar mass.

Assays:
[1] = system: S.aureus ATCC 13709 Smith; assay: MIC by microbroth dilution method; format: cell-based
S.aureus ATCC 29213 = assay: MIC by microbroth dilution method; format: cell-based
MRSA ATCC 43300 = assay: MIC by microbroth dilution method; format: cell-based, S. aureus
MRSA 562 = assay: MIC by microbroth dilution method; format: cell-based, S. aureus
S.aureus2 (PVL + ve) = format: cell-based, S. aureus
[2] = system: S.aureus ATCC Newman 25904; assay: MIC by microbroth dilution method; format: cell-based
MRSA ATCC BAA 39 = assay: MIC by microbroth dilution method; format: cell-based, S. aureus
S.aureus DB00026 = assay: MIC by microbroth dilution method; format: cell-based
MRSA 252 BAA 1720 = assay: MIC by microbroth dilution method; format: cell-based, S. aureus
S.epidermidis ATCC 14990 = assay: MIC by microbroth dilution method; format: cell-based
MRSE ATCC 35984 = assay: MIC by microbroth dilution method; format: cell-based, S. epidermidis
E.faecalis ATCC 29212 = assay: MIC by microbroth dilution method; format: cell-based
[3] = system: E.faecalis ATCC 51299(VRE&HLAR); assay: MIC by microbroth dilution method; format: cell-based
E.faecalis ATCC 19433 = assay: MIC by microbroth dilution method; format: cell-based
E.faecium ATCC 19434 = assay: MIC by microbroth dilution method; format: cell-based
E.faecium ATCC 49224 = assay: MIC by microbroth dilution method; format: cell-based
E.faecium ATCC 35667 = assay: MIC by microbroth dilution method; format: cell-based
E.coli 7632 = assay: MIC by microbroth dilution method; format: cell-based
[4] = system: S.aureus ATCC 49775 PVL + ve; format: cell-based
[5] = system: S.aureus ATCC 700699 Mu50; assay: MIC by microbroth dilution method; format: cell-based
MRSA 0-2657 = assay: MIC by microbroth dilution method; format: cell-based, S. aureus
MRSA DB 00026 = assay: MIC by microbroth dilution method; format: cell-based, S. aureus
[6] = system: S.aureus 13709 LNZ mutant; format: cell-based
S.epidermidis ATCC 12228 = assay: MIC by microbroth dilution method; format: cell-based
MRSE ATCC 35983 = assay: MIC by microbroth dilution method; format: cell-based, S. epidermidis
S.epidermis St 358 = assay: MIC by microbroth dilution method; format: cell-based, S. epidermidis
E.faecalis SP 346 VRE = assay: MIC by microbroth dilution method; format: cell-based
E.faecium 6A VRE = assay: MIC by microbroth dilution method; format: cell-based
E.faecium 134 VRE = assay: MIC by microbroth dilution method; format: cell-based
E.faecium 06076 VRE = assay: MIC by microbroth dilution method; format: cell-based
E.faecium ATCC 3567 = assay: MIC by microbroth dilution method; format: cell-based
[7] = system: Mycobacterium tuberculosis H37Rv; assay: Anti-TB activity, colorimetric resazurin microtiter assay; format: cell-based; conditions: for MIC: Mycobacterium tuberculosis, H37RV, read-out: MIC, Minimum Inhibitory Concentration (90%)

In the case of `C[Si]1(C)CCN(c2c(F)cc(N3C[C@H](CO)OC3=O)cc2F)CC1` [NDS-10052, (R)-3-(4-(4,4-dimethyl-1,4-azasilinan-1-yl)-3,5-difluorophenyl)-5-(hydroxymethyl)oxazolidin-2-one], the MIC [1] was > 32 µg/mL, the MIC (S.aureus ATCC 29213) was > 32 µg/mL and the MIC (MRSA ATCC 43300) was > 32 µg/mL. For the same compound, the MIC (MRSA 562) was 16 µg/mL (≈ 44.9 µM), the MIC (S.aureus2 (PVL + ve)) was > 32 µg/mL and the MIC [2] was > 32 µg/mL. The MIC (MRSA ATCC BAA 39) was 16 µg/mL (≈ 44.9 µM), the MIC (S.aureus DB00026) was 32 µg/mL (≈ 89.8 µM) and the MIC (MRSA 252 BAA 1720) was > 32 µg/mL. The MIC (S.epidermidis ATCC 14990) was 16 µg/mL (≈ 44.9 µM), the MIC (MRSE ATCC 35984) was 32 µg/mL (≈ 89.8 µM) and the MIC (E.faecalis ATCC 29212) was > 32 µg/mL. For the same compound, the MIC [3] was > 32 µg/mL, the MIC (E.faecalis ATCC 19433) was > 32 µg/mL and the MIC (E.faecium ATCC 19434) was 16 µg/mL (≈ 44.9 µM). For the same compound, the MIC (E.faecium ATCC 49224) was 8 µg/mL (≈ 22.4 µM), the MIC (E.faecium ATCC 35667) was 32 µg/mL (≈ 89.8 µM) and the MIC (E.coli 7632) was > 32 µg/mL. The MIC [4] was > 32 µg/mL, the MIC [5] was 8 µg/mL (≈ 22.4 µM) and the MIC (MRSA 0-2657) was > 32 µg/mL. For the same compound, the MIC (MRSA DB 00026) was > 32 µg/mL, the MIC [6] was > 32 µg/mL and the MIC (S.epidermidis ATCC 12228) was > 32 µg/mL. For the same compound, the MIC (MRSE ATCC 35983) was > 32 µg/mL, the MIC (S.epidermis St 358) was > 32 µg/mL and the MIC (E.faecalis SP 346 VRE) was > 32 µg/mL. The MIC (E.faecium 6A VRE) was 8 µg/mL (≈ 22.4 µM), the MIC (E.faecium 134 VRE) was > 32 µg/mL and the MIC (E.faecium 06076 VRE) was > 32 µg/mL. It also gave an MIC (E.faecium ATCC 3567) of 32 µg/mL (≈ 89.8 µM) and a melting point of 126 to 128 °C.

For `C[Si]1(c2ccccc2)CCN(c2c(F)cc(N3C[C@H](CO)OC3=O)cc2F)CC1` [NDS-10071, (R)-3-(3,5-difluoro-4-(4-methyl-4-phenyl-1,4-azasilinan-1-yl)phenyl)-5-(hydroxylmethyl)oxazolidin-2-one], the MIC [1] was 32 µg/mL (≈ 76.5 µM), the MIC (S.aureus ATCC 29213) was > 32 µg/mL and the MIC (MRSA ATCC 43300) was > 32 µg/mL. It also gave an MIC (MRSA 562) of 32 µg/mL (≈ 76.5 µM), an MIC (S.aureus2 (PVL + ve)) of 32 µg/mL (≈ 76.5 µM) and an MIC [2] of 16 µg/mL (≈ 38.2 µM). It also gave an MIC (MRSA ATCC BAA 39) of 32 µg/mL (≈ 76.5 µM), an MIC (S.aureus DB00026) of 32 µg/mL (≈ 76.5 µM) and an MIC (MRSA 252 BAA 1720) of 32 µg/mL (≈ 76.5 µM). For the same compound, the MIC (S.epidermidis ATCC 14990) was 16 µg/mL (≈ 38.2 µM), the MIC (MRSE ATCC 35984) was 16 µg/mL (≈ 38.2 µM) and the MIC (E.faecalis ATCC 29212) was 8 µg/mL (≈ 19.1 µM). It also gave an MIC [3] of 32 µg/mL (≈ 76.5 µM), an MIC (E.faecalis ATCC 19433) of 16 µg/mL (≈ 38.2 µM) and an MIC (E.faecium ATCC 19434) of 32 µg/mL (≈ 76.5 µM). For the same compound, the MIC (E.faecium ATCC 49224) was 32 µg/mL (≈ 76.5 µM), the MIC (E.faecium ATCC 35667) was 16 µg/mL (≈ 38.2 µM) and the MIC (E.coli 7632) was 16 µg/mL (≈ 38.2 µM). The MIC [4] was 16(ppt), the MIC [5] was 32 µg/mL (≈ 76.5 µM) and the MIC (MRSA 0-2657) was 8(ppt). For the same compound, the MIC (MRSA DB 00026) was 16 µg/mL (≈ 38.2 µM), the MIC [6] was 16(ppt) and the MIC (S.epidermidis ATCC 12228) was > 32 µg/mL. The MIC (MRSE ATCC 35983) was 16 µg/mL (≈ 38.2 µM), the MIC (S.epidermis St 358) was 16 µg/mL (≈ 38.2 µM) and the MIC (E.faecalis SP 346 VRE) was 16(ppt). It also gave an MIC (E.faecium 6A VRE) of 32 µg/mL (≈ 76.5 µM), an MIC (E.faecium 134 VRE) of 8 µg/mL (≈ 19.1 µM) and an MIC (E.faecium 06076 VRE) of 32 µg/mL (≈ 76.5 µM). For the same compound, the MIC (E.faecium ATCC 3567) was > 32 µg/mL, the MIC [7] was 50 µg/mL (≈ 119 µM) and the melting point was 105 to 107 °C.

For `C[Si]1(C)CCN(c2ccc(N3C[C@H](CO)OC3=O)cc2F)CC1` [NDS-10059, (R)-3-(4-(4,4-dimethyl-1,4-azasilinan-1-yl)-3-fluorophenyl)-5-(hydroxymethyl)oxazolidin-2-one], the MIC [1] was > 32 µg/mL, the MIC (S.aureus ATCC 29213) was > 32 µg/mL and the MIC (MRSA ATCC 43300) was > 32 µg/mL. For the same compound, the MIC (MRSA 562) was > 32 µg/mL, the MIC (S.aureus2 (PVL + ve)) was > 32 µg/mL and the MIC [2] was > 32 µg/mL. For the same compound, the MIC (MRSA ATCC BAA 39) was > 32 µg/mL, the MIC (S.aureus DB00026) was > 32 µg/mL and the MIC (MRSA 252 BAA 1720) was > 32 µg/mL. It also gave an MIC (S.epidermidis ATCC 14990) of 32 µg/mL (≈ 94.5 µM), an MIC (MRSE ATCC 35984) of 32 µg/mL (≈ 94.5 µM) and an MIC (E.faecalis ATCC 29212) of 32 µg/mL (≈ 94.5 µM). For the same compound, the MIC [3] was 32 µg/mL (≈ 94.5 µM), the MIC (E.faecalis ATCC 19433) was > 32 µg/mL and the MIC (E.faecium ATCC 19434) was 32 µg/mL (≈ 94.5 µM). For the same compound, the MIC (E.faecium ATCC 49224) was > 32 µg/mL, the MIC (E.faecium ATCC 35667) was > 32 µg/mL and the MIC (E.coli 7632) was 32 µg/mL (≈ 94.5 µM). For the same compound, the MIC [4] was 32 µg/mL (≈ 94.5 µM), the MIC [5] was > 32 µg/mL and the MIC (MRSA 0-2657) was 32 µg/mL (≈ 94.5 µM). For the same compound, the MIC (MRSA DB 00026) was > 32 µg/mL, the MIC [6] was > 32 µg/mL and the MIC (S.epidermidis ATCC 12228) was > 32 µg/mL. For the same compound, the MIC (MRSE ATCC 35983) was > 32 µg/mL, the MIC (S.epidermis St 358) was 32 µg/mL (≈ 94.5 µM) and the MIC (E.faecalis SP 346 VRE) was 32 µg/mL (≈ 94.5 µM). The MIC (E.faecium 6A VRE) was > 32 µg/mL, the MIC (E.faecium 134 VRE) was 32 µg/mL (≈ 94.5 µM) and the MIC (E.faecium 06076 VRE) was > 32 µg/mL. For the same compound, the MIC (E.faecium ATCC 3567) was > 32 µg/mL and the MIC [7] was 100 µg/mL (≈ 295 µM).

For `CC(=O)NCC1CN(c2ccc(N3CC[Si](C)(C)CC3)c(F)c2)C(=O)O1` (stereo not drawn) [NDS-10026, N-((3-(4-(4,4-dimethyl-1,4-azasilinan-1-yl)-3-fluorophenyl)-2-oxooxazolidin-5-yl)methy)acetamide], the MIC [1] was > 16 µg/mL, the MIC (S.aureus ATCC 29213) was 16 µg/mL (≈ 42.2 µM) and the MIC (MRSA ATCC 43300) was 32 µg/mL (≈ 84.3 µM). It also gave an MIC (MRSA 562) of 16 µg/mL (≈ 42.2 µM), an MIC (S.aureus2 (PVL + ve)) of 32 µg/mL (≈ 84.3 µM) and an MIC [2] of 32 µg/mL (≈ 84.3 µM). It also gave an MIC (MRSA ATCC BAA 39) of 16 µg/mL (≈ 42.2 µM), an MIC (S.aureus DB00026) of 32 µg/mL (≈ 84.3 µM) and an MIC (MRSA 252 BAA 1720) of 32 µg/mL (≈ 84.3 µM). The MIC (S.epidermidis ATCC 14990) was 16 µg/mL (≈ 42.2 µM), the MIC (MRSE ATCC 35984) was 16 µg/mL (≈ 42.2 µM) and the MIC (E.faecalis ATCC 29212) was > 16 µg/mL. For the same compound, the MIC [3] was 16 µg/mL (≈ 42.2 µM), the MIC (E.faecalis ATCC 19433) was > 16 µg/mL and the MIC (E.faecium ATCC 19434) was > 16 µg/mL. The MIC (E.faecium ATCC 49224) was 8 µg/mL (≈ 21.1 µM), the MIC (E.faecium ATCC 35667) was 8 µg/mL (≈ 21.1 µM) and the MIC (E.coli 7632) was > 32 µg/mL. For the same compound, the MIC [4] was > 16 µg/mL, the MIC [5] was 16 µg/mL (≈ 42.2 µM) and the MIC (MRSA 0-2657) was 16 µg/mL (≈ 42.2 µM). The MIC (MRSA DB 00026) was > 16 µg/mL, the MIC [6] was > 16 µg/mL and the MIC (S.epidermidis ATCC 12228) was 16 µg/mL (≈ 42.2 µM). The MIC (MRSE ATCC 35983) was 16 µg/mL (≈ 42.2 µM), the MIC (S.epidermis St 358) was > 16 µg/mL and the MIC (E.faecalis SP 346 VRE) was > 16 µg/mL. The MIC (E.faecium 6A VRE) was 16 µg/mL (≈ 42.2 µM), the MIC (E.faecium 134 VRE) was 16 µg/mL (≈ 42.2 µM) and the MIC (E.faecium 06076 VRE) was > 16 µg/mL. For the same compound, the MIC (E.faecium ATCC 3567) was > 16 µg/mL and the “MIC, Minimum Inhibitory Concentration (90%)” value ([7]; inhibition of Mycobacterium tuberculosis H37Rv growth, 7H9-OADC media, 37° C., visual readout) was 50 µg/mL (≈ 132 µM).
